Laboratory results: ChEMBL document CHEMBL4507325 (2021)

Tests used:
[1] = molecular target: 5-hydroxytryptamine receptor 2A (Homo sapiens) (UniProt P28223); conditions: Compound concentration 10.0 uM
[2] = molecular target: Muscarinic acetylcholine receptor M1 (Homo sapiens) (UniProt P11229); conditions: Compound concentration 10.0 uM
[3] = molecular target: Muscarinic acetylcholine receptor M2 (Homo sapiens) (UniProt P08172); conditions: Compound concentration 10.0 uM
[4] = molecular target: 5-hydroxytryptamine receptor 5A (Homo sapiens) (UniProt P47898); conditions: Compound concentration 10.0 uM
[5] = molecular target: Glutamate receptor 2 (Homo sapiens) (UniProt P42262); conditions: Rattus norvegicus; Compound concentration 10.0 uM
[6] = molecular target: D(2) dopamine receptor (Homo sapiens) (UniProt P14416); conditions: Compound concentration 10.0 uM
Oryctolagus cuniculus = species on record: Oryctolagus cuniculus; conditions: Compound concentration 10.0 uM
[7] = molecular target: Histamine H4 receptor (Homo sapiens) (UniProt Q9H3N8); conditions: Compound concentration 10.0 uM
[8] = molecular target: D(1B) dopamine receptor (Homo sapiens) (UniProt P21918); conditions: Compound concentration 10.0 uM
[9] = molecular target: 5-hydroxytryptamine receptor 1A (Homo sapiens) (UniProt P08908); conditions: Compound concentration 10.0 uM
Chain of 5-hydroxytryptamine receptor 1A (Homo sapiens) (P08908 whole entry): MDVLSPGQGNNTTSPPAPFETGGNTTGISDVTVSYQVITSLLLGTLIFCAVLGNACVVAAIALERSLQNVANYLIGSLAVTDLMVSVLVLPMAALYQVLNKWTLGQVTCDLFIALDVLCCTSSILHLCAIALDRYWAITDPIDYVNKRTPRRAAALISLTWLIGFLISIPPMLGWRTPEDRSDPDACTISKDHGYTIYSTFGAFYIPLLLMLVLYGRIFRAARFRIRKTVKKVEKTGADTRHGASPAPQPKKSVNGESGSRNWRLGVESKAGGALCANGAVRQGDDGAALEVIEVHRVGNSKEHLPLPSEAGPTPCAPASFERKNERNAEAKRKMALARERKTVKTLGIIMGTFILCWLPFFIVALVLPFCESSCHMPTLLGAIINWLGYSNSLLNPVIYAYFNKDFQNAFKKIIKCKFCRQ

Chain of Muscarinic acetylcholine receptor M2 (Homo sapiens) (P08172 whole entry): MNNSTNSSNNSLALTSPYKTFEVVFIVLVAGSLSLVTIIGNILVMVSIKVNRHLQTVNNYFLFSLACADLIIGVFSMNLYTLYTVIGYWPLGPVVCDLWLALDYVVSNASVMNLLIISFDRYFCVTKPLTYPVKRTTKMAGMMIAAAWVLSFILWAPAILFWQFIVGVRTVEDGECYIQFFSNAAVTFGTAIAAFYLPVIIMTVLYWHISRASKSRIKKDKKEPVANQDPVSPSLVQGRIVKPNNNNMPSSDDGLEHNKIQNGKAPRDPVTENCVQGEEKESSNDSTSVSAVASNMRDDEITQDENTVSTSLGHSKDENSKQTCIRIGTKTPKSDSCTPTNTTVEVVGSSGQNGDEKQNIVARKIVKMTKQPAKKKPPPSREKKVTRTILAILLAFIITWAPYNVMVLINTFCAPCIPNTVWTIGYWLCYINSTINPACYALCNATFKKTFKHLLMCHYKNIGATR
Chain of 5-hydroxytryptamine receptor 2A (Homo sapiens) (P28223 whole entry): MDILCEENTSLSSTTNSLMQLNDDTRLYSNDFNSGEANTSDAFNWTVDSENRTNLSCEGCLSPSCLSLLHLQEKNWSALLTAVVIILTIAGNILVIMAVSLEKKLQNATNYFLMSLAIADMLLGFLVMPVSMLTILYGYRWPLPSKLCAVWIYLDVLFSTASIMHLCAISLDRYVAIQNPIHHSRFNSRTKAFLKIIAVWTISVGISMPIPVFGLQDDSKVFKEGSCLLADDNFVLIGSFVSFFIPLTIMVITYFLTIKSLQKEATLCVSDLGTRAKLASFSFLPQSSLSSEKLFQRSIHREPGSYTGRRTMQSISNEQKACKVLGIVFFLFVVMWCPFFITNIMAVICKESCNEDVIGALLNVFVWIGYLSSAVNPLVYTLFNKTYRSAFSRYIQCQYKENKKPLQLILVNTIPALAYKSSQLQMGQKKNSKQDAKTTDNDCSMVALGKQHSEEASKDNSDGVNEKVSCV
Chain of Muscarinic acetylcholine receptor M1 (Homo sapiens) (P11229 whole entry): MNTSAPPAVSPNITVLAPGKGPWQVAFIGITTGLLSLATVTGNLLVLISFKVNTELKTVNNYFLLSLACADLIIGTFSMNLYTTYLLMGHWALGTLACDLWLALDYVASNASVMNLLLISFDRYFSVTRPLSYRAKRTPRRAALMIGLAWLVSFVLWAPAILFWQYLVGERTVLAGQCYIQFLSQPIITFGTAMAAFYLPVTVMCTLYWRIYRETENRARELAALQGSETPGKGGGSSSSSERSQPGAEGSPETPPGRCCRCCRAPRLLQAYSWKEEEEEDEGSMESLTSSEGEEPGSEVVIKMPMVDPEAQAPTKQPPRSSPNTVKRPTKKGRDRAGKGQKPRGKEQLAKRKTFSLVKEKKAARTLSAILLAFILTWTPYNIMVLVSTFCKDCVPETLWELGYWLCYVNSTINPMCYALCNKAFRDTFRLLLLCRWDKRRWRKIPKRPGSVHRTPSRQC
Chain of Glutamate receptor 2 (Homo sapiens) (P42262 whole entry): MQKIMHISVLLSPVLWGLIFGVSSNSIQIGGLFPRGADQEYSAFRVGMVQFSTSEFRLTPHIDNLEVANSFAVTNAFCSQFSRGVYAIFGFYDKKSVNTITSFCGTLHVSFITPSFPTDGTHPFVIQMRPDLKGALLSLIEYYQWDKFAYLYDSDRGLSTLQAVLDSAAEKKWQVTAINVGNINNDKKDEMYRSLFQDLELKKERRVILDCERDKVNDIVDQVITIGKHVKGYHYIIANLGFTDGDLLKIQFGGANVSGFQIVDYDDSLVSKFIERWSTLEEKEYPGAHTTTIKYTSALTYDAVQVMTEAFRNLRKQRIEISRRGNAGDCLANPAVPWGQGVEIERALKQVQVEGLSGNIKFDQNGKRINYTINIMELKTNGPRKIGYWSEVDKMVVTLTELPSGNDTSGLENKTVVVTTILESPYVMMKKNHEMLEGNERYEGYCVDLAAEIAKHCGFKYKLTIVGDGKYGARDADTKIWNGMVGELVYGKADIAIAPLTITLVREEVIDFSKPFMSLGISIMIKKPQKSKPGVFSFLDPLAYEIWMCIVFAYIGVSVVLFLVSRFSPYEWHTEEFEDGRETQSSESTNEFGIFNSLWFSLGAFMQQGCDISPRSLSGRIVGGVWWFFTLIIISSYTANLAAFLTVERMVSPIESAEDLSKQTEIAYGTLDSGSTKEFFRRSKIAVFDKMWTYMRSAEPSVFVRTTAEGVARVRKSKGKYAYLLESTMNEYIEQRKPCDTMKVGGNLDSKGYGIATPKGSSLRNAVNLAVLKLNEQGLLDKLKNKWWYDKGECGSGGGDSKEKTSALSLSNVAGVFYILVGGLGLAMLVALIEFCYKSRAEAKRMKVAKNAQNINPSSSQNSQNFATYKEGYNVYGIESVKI
Chain of D(1B) dopamine receptor (Homo sapiens) (P21918 whole entry): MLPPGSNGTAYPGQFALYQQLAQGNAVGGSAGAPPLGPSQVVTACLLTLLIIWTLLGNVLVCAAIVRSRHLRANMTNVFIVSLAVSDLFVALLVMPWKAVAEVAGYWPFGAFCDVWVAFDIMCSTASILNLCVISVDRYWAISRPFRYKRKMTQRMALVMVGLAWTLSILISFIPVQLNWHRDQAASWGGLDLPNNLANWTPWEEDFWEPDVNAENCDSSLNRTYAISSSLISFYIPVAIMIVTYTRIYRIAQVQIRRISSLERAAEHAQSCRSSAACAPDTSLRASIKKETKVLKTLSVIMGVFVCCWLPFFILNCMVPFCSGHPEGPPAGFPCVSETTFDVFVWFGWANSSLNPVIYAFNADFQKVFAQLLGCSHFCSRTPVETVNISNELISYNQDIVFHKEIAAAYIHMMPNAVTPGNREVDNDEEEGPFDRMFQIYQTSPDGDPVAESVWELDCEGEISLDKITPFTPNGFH
Chain of 5-hydroxytryptamine receptor 5A (Homo sapiens) (P47898 whole entry): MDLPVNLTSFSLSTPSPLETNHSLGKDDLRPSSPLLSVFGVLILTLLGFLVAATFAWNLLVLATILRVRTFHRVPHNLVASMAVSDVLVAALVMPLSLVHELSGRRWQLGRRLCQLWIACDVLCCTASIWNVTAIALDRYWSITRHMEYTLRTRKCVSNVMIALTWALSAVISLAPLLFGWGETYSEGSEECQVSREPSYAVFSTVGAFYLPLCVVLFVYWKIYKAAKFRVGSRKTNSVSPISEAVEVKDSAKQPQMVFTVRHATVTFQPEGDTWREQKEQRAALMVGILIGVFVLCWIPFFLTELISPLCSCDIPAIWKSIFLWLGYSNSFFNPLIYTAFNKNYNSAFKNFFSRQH
Chain of D(2) dopamine receptor (Homo sapiens) (P14416 whole entry): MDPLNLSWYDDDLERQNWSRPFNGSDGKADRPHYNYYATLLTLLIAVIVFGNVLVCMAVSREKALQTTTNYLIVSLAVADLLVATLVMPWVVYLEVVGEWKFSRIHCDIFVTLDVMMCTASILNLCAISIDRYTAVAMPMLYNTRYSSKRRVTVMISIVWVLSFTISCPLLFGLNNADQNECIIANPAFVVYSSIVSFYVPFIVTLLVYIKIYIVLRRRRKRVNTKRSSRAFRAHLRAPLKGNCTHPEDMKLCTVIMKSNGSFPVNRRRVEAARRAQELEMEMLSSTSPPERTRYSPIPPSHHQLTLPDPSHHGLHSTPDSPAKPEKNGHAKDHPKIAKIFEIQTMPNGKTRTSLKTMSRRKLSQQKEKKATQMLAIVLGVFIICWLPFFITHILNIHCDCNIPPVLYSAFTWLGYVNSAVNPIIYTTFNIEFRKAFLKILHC

inhibition [1]: -2.88%
inhibition [2]: 17.8%
inhibition [3]: 4%
inhibition [4]: 5.61%
inhibition [5]: 11%
inhibition [6]: -5%
inhibition (Oryctolagus cuniculus): 11%
inhibition [7]: -6.41%
inhibition [8]: 18.7%
inhibition [9]: 8.88%
Compound: Cc1ccccc1Oc1cc(-n2c(=O)cc(C(F)(F)F)[nH]c2=O)c2ccccc2c1Cl [BAY-069]
